Earlier results, collected in US20060099667A1, “Method for performing restrained dynamics docking of one or multiple substrates on multi-specific enzymes” (priority 2002, published 2006).
Entries after “also recorded” stand apart in the source; their conditions may differ. Where a name gives a salt, the structure may show the parent alone.

Tests used:
[1] = biological target: CYP3A7 (Homo sapiens, UniProt P24462)
[2] = biological target: CYP3A4 (Homo sapiens, UniProt P08684)
[3] = biological target: CYP3A5 (Homo sapiens, UniProt P20815)
CYP3A5, sequence (P20815 whole entry): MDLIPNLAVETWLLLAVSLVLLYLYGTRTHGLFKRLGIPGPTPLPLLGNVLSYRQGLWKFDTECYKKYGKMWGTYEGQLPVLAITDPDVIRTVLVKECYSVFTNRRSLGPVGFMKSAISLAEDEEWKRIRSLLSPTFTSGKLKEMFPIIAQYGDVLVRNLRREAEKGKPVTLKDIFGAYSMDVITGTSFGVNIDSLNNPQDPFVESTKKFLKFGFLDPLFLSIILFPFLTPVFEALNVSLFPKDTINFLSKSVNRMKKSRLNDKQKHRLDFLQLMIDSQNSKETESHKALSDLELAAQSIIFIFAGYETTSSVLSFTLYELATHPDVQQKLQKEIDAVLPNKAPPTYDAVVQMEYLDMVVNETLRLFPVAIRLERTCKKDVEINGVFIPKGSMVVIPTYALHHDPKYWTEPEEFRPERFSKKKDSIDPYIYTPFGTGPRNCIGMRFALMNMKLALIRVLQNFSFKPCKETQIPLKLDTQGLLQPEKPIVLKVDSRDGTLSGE

CYP3A7, sequence (P24462 whole entry): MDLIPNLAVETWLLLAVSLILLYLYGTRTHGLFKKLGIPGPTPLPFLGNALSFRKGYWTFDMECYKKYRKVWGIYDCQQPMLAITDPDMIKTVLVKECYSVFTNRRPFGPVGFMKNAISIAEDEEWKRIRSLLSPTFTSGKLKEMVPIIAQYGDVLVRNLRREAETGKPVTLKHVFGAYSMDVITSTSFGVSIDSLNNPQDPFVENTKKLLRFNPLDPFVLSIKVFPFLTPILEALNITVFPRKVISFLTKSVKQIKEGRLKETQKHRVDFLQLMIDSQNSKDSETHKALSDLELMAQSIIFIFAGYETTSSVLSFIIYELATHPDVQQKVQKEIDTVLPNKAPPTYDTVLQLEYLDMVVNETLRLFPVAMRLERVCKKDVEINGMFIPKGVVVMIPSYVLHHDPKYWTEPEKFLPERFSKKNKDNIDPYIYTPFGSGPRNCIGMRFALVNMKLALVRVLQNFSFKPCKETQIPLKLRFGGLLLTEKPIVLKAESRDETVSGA
CYP3A4, sequence (P08684 whole entry): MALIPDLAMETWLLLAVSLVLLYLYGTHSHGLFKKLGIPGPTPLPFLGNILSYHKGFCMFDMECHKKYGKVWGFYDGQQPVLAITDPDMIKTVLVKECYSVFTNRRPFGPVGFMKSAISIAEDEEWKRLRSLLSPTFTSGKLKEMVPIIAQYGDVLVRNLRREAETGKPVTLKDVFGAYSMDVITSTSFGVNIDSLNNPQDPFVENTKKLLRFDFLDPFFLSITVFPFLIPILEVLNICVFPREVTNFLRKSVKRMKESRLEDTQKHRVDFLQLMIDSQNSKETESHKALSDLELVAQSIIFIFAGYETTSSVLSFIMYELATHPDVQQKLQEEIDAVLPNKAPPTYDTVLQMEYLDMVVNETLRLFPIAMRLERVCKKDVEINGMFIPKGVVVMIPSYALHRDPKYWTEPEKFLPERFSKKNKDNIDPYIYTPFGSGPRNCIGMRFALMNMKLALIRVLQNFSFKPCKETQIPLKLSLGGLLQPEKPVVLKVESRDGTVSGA

Compound	position of oxidation [1]	position of oxidation [2]	position of oxidation [3]
C[C@]12CC[C@H](OS(=O)(=O)O)CC1=CC[C@@H]1[C@@H]2CC[C@]2(C)C(=O)CC[C@@H]12 [DHEA 3 sulfate conjugate]	exclusively on the 16α position		
C[C@]12CC[C@H]3[C@@H](CCC4=CC(=O)CC[C@@]43C)[C@@H]1CC[C@@H]2O [testosterone]	both 6β and 16α position	exclusively at the 6β position; also recorded: almost exclusively in the 6β position	almost exclusively in the 6β position
